Laboratory results published in patent US7205410B2, “4-(aminomethyl)-piperidine benzamides for treating gastrointestinal disorders” (Janssen Pharmaceutica, N.V., priority 1998, dated 2007).

test system: not given; assay: not given; conditions: not given

Row | melting point | SMILES
1 | 112 °C | CCCCN1CC[C@@H](CNC(=O)c2cc(Cl)cc3c2OCCO3)[C@H](O)C1 (racemic) [Compound 64, (±)-(trans)-N-[(1-butyl-3-hydroxy-4-piperidinyl)methyl]-7-chloro-2,3-dihydro-1,4-benzodioxin-5-carboxamide]

target: T1, 5HT4 (Rattus norvegicus, UniProt Q62758); assay: 5HT4 antagonism in rat oesophageal tunica muscularis mucosae; format: cell-based; conditions: 5HT4 antagonistic data; isolated rat oesophageal tunica muscularis mucosae, method of Baxter et al.
T1 construct: 5HT4 Antagonism in Rat Oesophageal Tunica Muscularis Mucosae; from tissue; host or cells: rat oesophageal tunica muscularis mucosae
T1 sequence (Q62758 whole entry): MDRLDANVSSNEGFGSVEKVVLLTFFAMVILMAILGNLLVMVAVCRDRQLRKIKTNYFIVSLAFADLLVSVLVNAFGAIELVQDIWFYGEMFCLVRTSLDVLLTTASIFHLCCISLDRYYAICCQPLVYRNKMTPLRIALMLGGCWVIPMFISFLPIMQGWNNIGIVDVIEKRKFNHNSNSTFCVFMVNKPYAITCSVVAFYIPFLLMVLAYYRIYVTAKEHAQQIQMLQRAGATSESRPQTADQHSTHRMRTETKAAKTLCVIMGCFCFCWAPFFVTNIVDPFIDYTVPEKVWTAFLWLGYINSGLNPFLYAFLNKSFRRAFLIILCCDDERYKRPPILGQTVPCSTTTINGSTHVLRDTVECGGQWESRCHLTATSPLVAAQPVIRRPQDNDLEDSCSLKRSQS
Method: 5HT4 Antagonism in Rat Oesophageal Tunica Muscularis Mucosae
The 5HT4 antagonistic potence of the present compounds was measured as described in Baxter G. S. et. al, Naunyn-Schmiedeberg's Arch. Pharmacol., 343, 439-446 ([…]).
The pA2 value is calculated as follows: [formula]

Row | SMILES | pA2
2 | O=C(NCC1CCN(Cc2ccccc2)CC1O)c1cc(Cl)cc2c1OCC2 (stereo not shown) [Compound 11] | 8.76
3 | O=C(NCC1CCN(Cc2ccccc2)CC1O)c1cc(Cl)cc2c1OCC2 (stereo not shown) [Compound 12] | 10.2
4 | O=C(NCC1CCN(CCCOc2ccc(F)cc2)CC1O)c1cc(Cl)cc2c1OCC2 (stereo not shown) [Compound 13] | 8.35
5 | O=C(NCC1CCN(CCCOc2ccc(F)cc2)CC1O)c1cc(Cl)cc2c1OCC2 (stereo not shown) [Compound 14] | 9.2
6 | O=C(CN1CCC(CNC(=O)c2cc(Cl)cc3c2OCC3)C(O)C1)c1ccccc1 (stereo not shown) [Compound 15] | 8.4
7 | CS(=O)(=O)NCCN1CCC(CNC(=O)c2cc(Cl)cc3c2OCC3)C(O)C1 (stereo not shown) [Compound 17] | 9.6
8 | O=C(NCC1CCN(CCOCCO)CC1O)c1cc(Cl)cc2c1OCC2 (stereo not shown) [Compound 29] | 9.6
9 | O=C(NCC1CCN(Cc2ccccc2)CC1O)c1cc(Cl)cc2c1OCCC2 (stereo not shown) [Compound 41] | 9.7
10 | O=C(CN1CCC(CNC(=O)c2cc(Cl)cc3c2OCCC3)C(O)C1)c1ccccc1.O=C(O)C(=O)O (stereo not shown) [Compound 42] | 9.5
11 | O=C(NCC1CCN(CCCOc2ccc(F)cc2)CC1O)c1cc(Cl)cc2c1OCCC2 (stereo not shown) [Compound 43] | 9.8
12 | O=C(NCC1CCN(CCOCCO)CC1O)c1cc(Cl)cc2c1OCCC2.O=C(O)C(=O)O (stereo not shown) [Compound 52] | 9.5
13 | O=C(NCC1CCN(Cc2ccccc2)CC1O)c1cc(Cl)cc2c1OCCO2 (stereo not shown) [Compound 77] | 9.19
14 | O=C(CN1CCC(CNC(=O)c2cc(Cl)cc3c2OCCO3)C(O)C1)c1ccccc1.O=C(O)C(=O)O (stereo not shown) [Compound 78] | 8.44
15 | O=C(NCC1CCN(CCCOc2ccc(F)cc2)CC1O)c1cc(Cl)cc2c1OCCO2.O=C(O)C(=O)O (stereo not shown) [Compound 80] | 8.83
16 | COCCCN1CCC(CNC(=O)c2cc(Cl)cc3c2OCCO3)C(OC)C1.O=C(O)C(=O)O (stereo not shown) [Compound 87] | 8.46
17 | COC1CN(CCCOc2ccc(F)cc2)CCC1CNC(=O)c1cc(Cl)cc2c1OCCO2.O=C(O)C(=O)O (stereo not shown) [Compound 88] | 9.2
18 | COC1CN(Cc2ccccc2)CCC1CNC(=O)c1cc(Cl)cc2c1OCCO2 (stereo not shown) [Compound 89] | <8
19 | CCCCN1CCC(O)(CNC(=O)c2cc(Cl)cc3c2OCCO3)CC1.Cl [Compound 100] | <8
20 | COCCCN1CCC(O)(CNC(=O)c2cc(Cl)cc3c2OCCO3)CC1.O=C(O)C(=O)O [Compound 101] | <7
21 | CS(=O)(=O)CCCN1CCC(O)(CNC(=O)c2cc(Cl)cc3c2OCCO3)CC1 [Compound 103] | <8
22 | CC(=O)CCCN1CCC(O)(CNC(=O)c2cc(Cl)cc3c2OCCO3)CC1 [Compound 106] | <8
23 | O=C(NCC1(O)CCN(CCOCCO)CC1)c1cc(Cl)cc2c1OCCO2.O=C(O)/C=C\C(=O)O [Compound 107] | <8
24 | CC(C)n1ccn(CCN2CCC(O)(CNC(=O)c3cc(Cl)cc4c3OCCO4)CC2)c1=O.O=C(O)C(=O)O [Compound 116] | ˜8
25 | O=C(NCC1(O)CCN(CCC2OCCCO2)CC1)c1cc(Cl)cc2c1OCCO2 [Compound 117] | <8
26 | COC1CN(Cc2ccccc2)CCC1CNC(=O)c1cc(Cl)cc2c1OCCCO2 (stereo not shown) [Compound 132] | 8.5
27 | N#CCCCN1CCC(O)(CNC(=O)c2cc(Cl)cc3c2OCCCO3)CC1.O=C(O)C(=O)O [Compound 167] | <8
28 | COCCCN1CCC(O)(CNC(=O)c2cc(Cl)cc3c2OCCCO3)CC1.O=C(O)C(=O)O [Compound 168] | <8
29 | CS(=O)(=O)CCCN1CCC(O)(CNC(=O)c2cc(Cl)cc3c2OCCCO3)CC1.O [Compound 169] | <8
30 | CCCCN1CCC(O)(CNC(=O)c2cc(Cl)cc3c2OCCCO3)CC1.O=C(O)C(=O)O [Compound 171] | <8
31 | CC(=O)CCCN1CCC(O)(CNC(=O)c2cc(Cl)cc3c2OCCCO3)CC1.O [Compound 180] | ˜7.5

Next, values leading:

Row | pA2 | SMILES
32 | 8.53 | CCCCN1CCC(CNC(=O)c2cc(Cl)cc3c2OCC3)C(O)C1 (stereo not shown) [Compound 1]
33 | 10.5 | CCCCN1CCC(CNC(=O)c2cc(Cl)cc3c2OCC3)C(O)C1 (stereo not shown) [Compound 2]
34 | 8.07 | COCCCN1CCC(CNC(=O)c2cc(Cl)cc3c2OCC3)C(O)C1 (stereo not shown) [Compound 3]
35 | 9.4 | COC(=O)CCCN1CCC(CNC(=O)c2cc(Cl)cc3c2OCC3)C(O)C1 (stereo not shown) [Compound 31]
36 | <8 | Cl.O=C(O)CCCN1CCC(CNC(=O)c2cc(Cl)cc3c2OCC3)C(O)C1 (stereo not shown) [Compound 32]
37 | 9.8 | CCCCN1CCC(CNC(=O)c2cc(Cl)cc3c2OCCC3)C(O)C1 (stereo not shown) [Compound 36]
38 | 9.81 | O=C(NCC1CCN(CCCO)CC1O)c1cc(Cl)cc2c1OCCC2 (stereo not shown) [Compound 39]
39 | 9.5 | COC(=O)CCCN1CCC(CNC(=O)c2cc(Cl)cc3c2OCCC3)C(O)C1 (stereo not shown) [Compound 53]
40 | 9.8 | Cl.O=C(O)CCCN1CCC(CNC(=O)c2cc(Cl)cc3c2OCCC3)C(O)C1 (stereo not shown) [Compound 54]
41 | 9.49 | CCCCN1CCC(CNC(=O)c2cc(Cl)cc3c2OCCO3)C(O)C1.O=C(O)C(=O)O (stereo not shown) [Compound 63]
42 | 9.26 | COCCCN1CCC(CNC(=O)c2cc(Cl)cc3c2OCCO3)C(O)C1.O=C(O)C(=O)O (stereo not shown) [Compound 66]
43 | 9.04 | O=C(NCC1CCN(CCCO)CC1O)c1cc(Cl)cc2c1OCCO2 (stereo not shown) [Compound 68]
44 | 9.22 | N#CCCCN1CCC(CNC(=O)c2cc(Cl)cc3c2OCCO3)C(O)C1.O=C(O)C(=O)O (stereo not shown) [Compound 74]
45 | 7.93 | O=C(NCC1CCN(CCCOc2ccc(F)cc2)CC1O)c1cc(Cl)cc2c1OCCO2 (stereo not shown) [Compound 79]
46 | 8.2 | CCCCN1CCC(CNC(=O)c2cc(Cl)cc3c2OCCO3)C(OC)C1.O=C(O)C(=O)O (stereo not shown) [Compound 86]
47 | 9.7 | Cl.O=C(NCC1CCN(CCOCCO)CC1O)c1cc(Cl)cc2c1OCCO2 (stereo not shown) [Compound 92]
48 | 9.4 | COC(=O)CCCN1CCC(CNC(=O)c2cc(Cl)cc3c2OCCO3)C(O)C1 (stereo not shown) [Compound 93]

Row | pA2 | SMILES
49 | 9.24 | Cl.O=C(O)CCCN1CCC(CNC(=O)c2cc(Cl)cc3c2OCCO3)C(O)C1 (stereo not shown) [Compound 94]
50 | 10.65 | CCCCN1CCC(CNC(=O)c2cc(Cl)cc3c2OCCCO3)C(O)C1 (stereo not shown) [Compound 119]
51 | 9.72 | COCCCN1CCC(CNC(=O)c2cc(Cl)cc3c2OCCCO3)C(O)C1 (stereo not shown) [Compound 120]
52 | 9.9 | CC(=O)CCCN1CCC(CNC(=O)c2cc(Cl)cc3c2OCCCO3)C(O)C1 (stereo not shown) [Compound 121]
53 | 9.78 | N#CCCCN1CCC(CNC(=O)c2cc(Cl)cc3c2OCCCO3)C(O)C1 (stereo not shown) [Compound 126]
54 | >8 | COCCCN1CCC(CNC(=O)c2cc(Cl)cc3c2OCCCO3)C(OC)C1.O=C(O)C(=O)O (stereo not shown) [Compound 129]
55 | 8.5 | CCCCN1CCC(CNC(=O)c2cc(Cl)cc3c2OCCCO3)C(OC)C1.O=C(O)C(=O)O (stereo not shown) [Compound 130]
56 | 9.5 | CCCCN1CCC(CNC(=O)c2cc(Cl)cc3c2OCCCO3)C(OC)C1.O=C(O)C(=O)O (stereo not shown) [Compound 131]
57 | 8.1 | COC1CN(CCCC(C)=O)CCC1CNC(=O)c1cc(Cl)cc2c1OCCCO2.O=C(O)C(=O)O (stereo not shown) [Compound 135]
58 | 8.6 | COC1CN(CCCC(C)=O)CCC1CNC(=O)c1cc(Cl)cc2c1OCCCO2.O=C(O)C(=O)O (stereo not shown) [Compound 139]
59 | 10.4 | O=C(NCC1CCN(CCCO)CC1O)c1cc(Cl)cc2c1OCCCO2 (stereo not shown) [Compound 144]
60 | 9.1 | Cl.O=C(O)CCCN1CCC(CNC(=O)c2cc(Cl)cc3c2OCCCO3)C(O)C1 (stereo not shown) [Compound 146]
61 | 9.4 | CCCCN1CCC(CNC(=O)c2cc(Cl)cc3c2OCCCCO3)C(O)C1.O (stereo not shown) [Compound 182]
62 | 10.5 | N#CCCCN1CCC(CNC(=O)c2cc(Cl)cc3c2OCCCCO3)C(O)C1.O=C(O)C(=O)O (stereo not shown) [Compound 188]
63 | 8.3 | O=C(NCC1CCN(CCOCCO)CC1O)c1cc(Cl)cc2c1OCCCCO2 (stereo not shown) [Compound 190]
64 | 10.1 | O=C(NCC1CCN(CCCO)CC1O)c1cc(Cl)cc2c1OCCCCO2 (stereo not shown) [Compound 192]
65 | 9 | Cl.O=C(O)CCCN1CCC(CNC(=O)c2cc(Cl)cc3c2OCCCCO3)C(O)C1 (stereo not shown) [Compound 194]

same assay, conditions: 5HT4 antagonistic data; isolated rat oesophageal tunica muscularis mucosae, method of Baxter et al.; read-out: pA2 (converted)

Row | Kb | SMILES
66 | 0.1 nM | CCCCN1CC[C@@H](CNC(=O)c2cc(Cl)cc3c2OCCO3)[C@H](O)C1 (racemic) [Compound 64, (±)-(trans)-N-[(1-butyl-3-hydroxy-4-piperidinyl)methyl]-7-chloro-2,3-dihydro-1,4-benzodioxin-5-carboxamide]
67 | 0.363 nM | CC(=O)CCCN1CC[C@@H](CNC(=O)c2cc(Cl)cc3c2OCCO3)[C@H](O)C1 (racemic) [Compound 65, (±)-(trans)-7-chloro-2,3 dihydro-N-[[3-hydroxy-1-(4-oxopentyl)-4-piperidinyl]methyl]-1,4-benzodioxin-5-carboxamide]
68 | 0.372 nM | COCCCN1CC[C@@H](CNC(=O)c2cc(Cl)cc3c2OCCO3)[C@H](O)C1 (racemic) [Compound 67, (±)-(trans)-7-chloro-2,3-dihydro-N-[[3-hydroxy-1-(3-methoxy-propyl)-4-piperidinyl]methyl]-1,4-benzodioxin-5-carboxamide]
69 | 0.0282 nM | Cc1nccnc1NCCCN1CC[C@@H](CNC(=O)c2cc(Cl)cc3c2OCCO3)[C@H](O)C1 (racemic) [Compound 84, (±)-(trans)-7-chloro-2,3-dihydro-N-[[3-hydroxy-1-[3-[(3-methyl-2-pyrazinyl)amino]propyl]-4-piperidinyl]methyl]-1,4-benzodioxin-5-carboxamide]
70 | 0.302 nM | O=C(NC[C@@H]1CCN(CCNc2nccc(O)n2)C[C@H]1O)c1cc(Cl)cc2c1OCCO2 (relative stereo) [Compound 85, (trans)-7-chloro-2,3-dihydro-N-[[3-hydroxy-1-[2-[(4-hydroxy-2 pyrimidinyl)amino]-ethyl]-4-piperidinyl]methyl]-1,4-benzodioxin-5-carboxamide monohydrate]
